Results from US12209096B2, “Compounds and compositions for inducing chondrogenesis” (NOVARTIS AG, priority 2017, dated 2025).
pEC50: −log10 of the molar value. Like-named read-outs stand apart in the source and are kept apart here.

Tested on: NHACs
Experiment: calcium flux assay
Assay type: cell-based, human
Details: for Emax: read-out: (A) % Efficacy
How it was run: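 FLIPR fluorescence (ex 470–495 nm, em 515–575 nm) was read before and after compound dispense at the indicated dose. Chondrocytes (NHACs), 2000 cells/well, had been dye-loaded 24 h after plating with Calcium 5 in HBSS/HEPES plus 5 mM probenecid, 1 h, room temperature.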

Compound	pEC50 (Homo sapiens)	pEC50	Emax (Homo sapiens) [%]	(A) % Efficacy [%]
Cc1cc([C@H]2[C@H]3O[C@H](C[C@H]3F)[C@H]2C(=O)Nc2cccc(C(F)(F)F)c2)ccn1 [Example 15, (1R,2S,3S,4R,5R)-5-fluoro-3-(2-methylpyridin-4-yl)-N-[3-(trifluoromethyl)phenyl]-7-oxabicyclo[2.2.1]heptane-2-carboxamide]	< 4.30		0	
(1R,2S,3S,4R,5S)-5-hydroxy-3-(pyridin-4-yl)-N-[3-(trifluoromethyl)phenyl]-7-oxabicyclo[2.2.1]heptane-2-carboxamide [Example 11]		< 4.30		27
Cc1cc([C@H]2[C@H]3O[C@H](C[C@H]3F)[C@@H]2C(=O)Nc2ccn(C)n2)ccn1 [Example 101, (1R,2R,3S,4R,5R)-5-fluoro-N-(1-methyl-1H-pyrazol-3-yl)-3-(2-methylpyridin-4-yl)-7-oxabicyclo[2.2.1]heptane-2-carboxamide]	4.54		62	
COc1ccc(NC(=O)[C@H]2[C@H]3O[C@H]([C@@H]4C[C@@H]43)[C@H]2c2ccc(C)nc2)cn1 [Example 3, (1R,2R,4S,5S,6R,7R)-N-(6-methoxypyridin-3-yl)-7-(6-methylpyridin-3-yl)-8-oxatricyclo[3.2.1.0^2,4]octane-6-carboxamide]	< 4.30		0	
Cc1cc([C@H]2[C@H]3O[C@H](C[C@@H]3O)[C@H]2C(=O)Nc2cc(Cl)c(Cl)cn2)ccn1 [Example 4, (1R,2S,3S,4R,5S)-N-(4,5-dichloropyridin-2-yl)-5-hydroxy-3-(2-methylpyridin-4-yl)-7-oxabicyclo[2.2.1]heptane-2-carboxamide]	< 4.30		28	
O=C(Nc1ccc(Cl)c(Cl)c1)[C@@H]1[C@@H]2O[C@@H]([C@H]3C[C@H]32)[C@@H]1c1ccncc1 [Example 44, (1S,2S,4R,5R,6S,7S)—N-(3,4-dichlorophenyl)-7-(pyridin-4-yl)-8-oxatricyclo[3.2.1.0^2,4]octane-6-carboxamide]	< 4.30		0	

Further compounds by rising pEC50 (Homo sapiens), results first:

pEC50 (Homo sapiens)	pEC50	Compound	Emax (Homo sapiens) [%]	(A) % Efficacy [%]
4.57		Cc1cc([C@@H]2[C@@H](C(=O)Nc3cccc(C(F)(F)F)c3)[C@@H]3O[C@H]2C[C@H]3F)ccn1 [Example 108, (1S,2R,3S,4S,6R)-6-fluoro-3-(2-methylpyridin-4-yl)-N-(3-(trifluoromethyl)phenyl)-7-oxabicyclo[2.2.1]heptane-2-carboxamide]	137	
4.59		Cc1cc([C@H]2[C@H]3O[C@H](C[C@@H]3O)[C@@H]2C(=O)Nc2ccc(Cl)c(Cl)c2)ccn1 (racemic) [Example 77, rac-(1R,2R,3S,4R,5S)—N-(3,4-dichlorophenyl)-5-hydroxy-3-(2-methylpyridin-4-yl)-7-oxabicyclo[2.2.1]heptane-2-carboxamide]	49	
4.68		Cc1cc([C@H]2[C@H]3O[C@H](C[C@H]3F)[C@@H]2C(=O)Nc2cnc(Cl)c(Cl)c2)ccn1 [Example 98, (1R,2R,3S,4R,5R)—N-(5,6-dichloropyridin-3-yl)-5-fluoro-3-(2-methylpyridin-4-yl)-7-oxabicyclo[2.2.1]heptane-2-carboxamide]	404	
4.72		O=C(Nc1cccc(C(F)(F)F)c1)[C@H]1[C@@H]2O[C@@H]([C@H]3C[C@H]32)[C@@H]1c1ccnc(F)c1 [Example 134, (1S,2S,4R,5R,6R,7S)-7-(2-fluoropyridin-4-yl)-N-(3-(trifluoromethyl)phenyl)-8-oxatricyclo[3.2.1.0^2,4]octane-6-carboxamide]	249	
4.77		O=C(Nc1ccc(Cl)c(Cl)c1)[C@@H]1[C@H]2O[C@H]([C@@H]3C[C@@H]32)[C@H]1c1ccnc(F)c1F (single isomer, unassigned) [Example 122b]	217	
5.34		COc1ccc(NC(=O)[C@@H]2[C@@H]3O[C@@H]([C@H]4C[C@H]43)[C@@H]2c2ccncc2)cn1 [Example 33, (1S,2S,4R,5R,6S,7S)—N-(6-methoxypyridin-3-yl)-7-(pyridin-4-yl)-8-oxatricyclo[3.2.1.0^2,4]octane-6-carboxamide]	49	
